Results as given in patent publication US7414041B2 (Trustees Of Tufts College, priority 1991, dated 2008).
Values after ≈ are worked out from the molar mass of the structure shown. Where two headings read alike, the source gives them in different places.

Key:
efflux protein = target: T1, efflux protein (Escherichia coli, UniProt P02980); test: everted membrane vesicle assay, blocking activity of 13-S-derivatives (Ki); format: biochemical
T1 sequence (P02980 1-401): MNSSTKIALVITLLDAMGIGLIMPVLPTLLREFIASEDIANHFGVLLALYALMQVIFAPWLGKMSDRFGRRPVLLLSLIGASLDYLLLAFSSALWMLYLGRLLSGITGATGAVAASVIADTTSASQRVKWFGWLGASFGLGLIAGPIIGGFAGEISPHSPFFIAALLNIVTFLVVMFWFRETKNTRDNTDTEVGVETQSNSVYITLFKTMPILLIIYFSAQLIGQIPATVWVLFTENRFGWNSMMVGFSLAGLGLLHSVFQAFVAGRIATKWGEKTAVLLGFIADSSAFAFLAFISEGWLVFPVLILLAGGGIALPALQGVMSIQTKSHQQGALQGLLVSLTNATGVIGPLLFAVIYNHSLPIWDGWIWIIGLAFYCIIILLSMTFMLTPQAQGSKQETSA

[1] = system: E. coli Tc^s (MI 300-225); test: susceptibility testing MIC/MLC, drug alone; format: cell-based
[2] = system: E. coli Class A Tc^r (DI-299); format: cell-based
[3] = system: E. coli Class β Tc^r (DI-209); format: cell-based
S. aureus Tc^s (RN450) = test: susceptibility testing MIC/MLC, drug alone; format: cell-based
S. aureus Tc^r (RN4250) = format: cell-based; settings: Tc^r RN4250
[4] = system: E. faecalis Tc^s (ATCC9790r); test: susceptibility testing MIC/MLC, drug alone; format: cell-based
[5] = system: E. faecalis Tc^r (L) (ATCC9790r/Tet L); format: cell-based; settings: Tc^r (L)
[6] = system: E. faecalis Tc^r (M) (ATCC9790r/Tet M); format: cell-based
[7] = target: T2, TET proteins responsible for tetracycline efflux (Class B tetracycline resistance determinant, strain D1-209) (Escherichia coli, UniProt P02980); test: biochemical; parameters: species or system E. coli
T2 construct: Everted vesicles, to which the TET proteins responsible for tetracycline efflux are attached; endogenous in cells; host or cells: E. coli strain D1-209 (everted membrane vesicles)

E. coli ML308 = test: MIC of tetracycline susceptible strains, C5 esters; format: cell-based; settings: Escherichia coli; E. coli ML308, alone; read-out: MIC
S. aureus 450 = test: MIC of tetracycline susceptible strains, C5 esters; format: cell-based; settings: Staphylococcus aureus; S. aureus 450, alone; read-out: MIC
E. faecalis ATCC 9790 = test: MIC of tetracycline susceptible strains, C5 esters; format: cell-based; settings: Enterococcus faecalis, ATCC9790; E. faecalis ATCC 9790, alone; read-out: MIC
E. coli D1-299 (Tet A) = format: cell-based; settings: Chart 6A, doxy = number in box (line above), listed as H analog alone;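 note: E. coli at roughly 5×10^5 cells/ml in L broth, analog and doxycycline alone or mixed in two-fold dilutions from 50 to under 1 µg/ml, 18 h at 37 °C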
S. aureus 4250 (Tet K) = test: MIC/MLC chart, analog with and without doxycycline; format: cell-based; settings: for MIC/MLC chart symbol: Chart 6B, doxy = number in box (line above), listed as H analog alone
E. faecalis 158 (Tet L) = test: MIC/MLC chart, analog with and without doxycycline; format: cell-based; settings: Chart 6C, doxy = number in box (line above), listed as H analog alone
E. faecalis 211 (Tet M) = test: MIC/MLC chart, analog with and without doxycycline; format: cell-based; settings: Chart 6D, doxy = number in box (line above), listed as H analog alone;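 note: broth checkerboard of two-fold drug dilutions, alone and mixed with doxycycline, bacteria near 5×10^5 cells/ml, 18 h incubation at 37 °C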

CCSCC1c2cccc(O)c2C(=O)C2=C(O)C3(O)C(=O)C(C(N)=O)=C(O)C(N(C)C)C3CC21 (stereo not shown) [Ethyl, 6-deoxy-13-(ethylmercapto) tetracycline] was tested, and the Ki (efflux protein) was 0.4 µg/mL (≈ 0.819 µM), the “MIC” value ([1]; Tc^s, 1st column) was 6 ± 0.26 µg and the “MIC” value ([1]; Tc^s, 2nd column) was 60 µg. For the same compound, the MIC ([1]; susceptible E. coli) was 5 µg/mL (≈ 10.2 µM), the “MIC” value ([2]; 1st column) was 14 ± 4 µg and the “MIC” value ([2]; 2nd column) was 46 ± 6 µg. For the same compound, the “MIC” value ([3]; 1st column) was 36 ± 16 µg, the “MIC” value ([3]; 2nd column) was 60 ± 10 µg and the “MIC” value (S. aureus Tc^s (RN450)) was 0.5 ± 0.25 µg. The “MLC” value (S. aureus Tc^s (RN450); kills 99.9%) was 4 µg, the “MIC” value (S. aureus Tc^r (RN4250)) was 5 ± 2 µg and the “MLC” value (S. aureus Tc^r (RN4250); kills 99.9%) was 30 ± 10 µg. For the same compound, the “MIC” value ([4]; 1st column) was 1 ± 0.6 µg, the “MIC” value ([4]; 2nd column) was 40 ± 0.25 µg and the “MIC” value ([5]; 1st column) was 4 ± 1 µg. For the same compound, the “MIC” value ([5]; 2nd column) was 100 ± 0.25 µg, the “MIC” value ([6]; 1st column) was 25 ± 6 µg and the “MIC” value ([6]; 2nd column) was >200 µg.
For C=C1c2cccc(O)c2C(=O)C2=C(O)C3(O)C(=O)C(C(N)=O)=C(O)C(N(C)C)C3C(OC(=O)CC)C12 (stereo not shown) [Cmpd 2, 5 proprionate methacycline], the IC50 [7] was 200 nM, the MIC (E. coli ML308) was 10 µg/mL and the MIC (S. aureus 450) was 1.3 µg/mL. The MIC (E. faecalis ATCC 9790) was 0.8 µg/mL, the MIC/MLC chart symbol (E. coli D1-299 (Tet A); analog 1.56 μg/ml) was “+” and the MIC/MLC chart symbol (E. coli D1-299 (Tet A); analog 3.12 μg/ml) was “+”. The MIC/MLC chart symbol (E. coli D1-299 (Tet A); analog 3.12 μg/ml, listed as 5-proprionate methacycline) was “◯”, the MIC/MLC chart symbol (E. coli D1-299 (Tet A); analog 6.25 μg/ml) was “+” and the MIC/MLC chart symbol (E. coli D1-299 (Tet A); analog 6.25 μg/ml, listed as 5-proprionate methacycline) was “◯”. For the same compound, the MIC/MLC chart symbol (E. coli D1-299 (Tet A); analog 12.5 μg/ml) was “+”, the MIC/MLC chart symbol (E. coli D1-299 (Tet A); analog 25 μg/ml) was “+” and the MIC/MLC chart symbol (E. coli D1-299 (Tet A); analog 25 μg/ml, listed as 5-proprionate methacycline) was “◯”. For the same compound, the MIC/MLC chart symbol (E. coli D1-299 (Tet A); analog .195 μg/ml) was “+”, the MIC/MLC chart symbol (E. coli D1-299 (Tet A); analog .39 μg/ml) was “+” and the MIC/MLC chart symbol (E. coli D1-299 (Tet A); analog .78 μg/ml) was “+”. The MIC/MLC chart symbol (S. aureus 4250 (Tet K); analog 1.56 μg/ml) was “↓ and ◯ and +”, the MIC/MLC chart symbol (S. aureus 4250 (Tet K); analog .195 μg/ml) was “↓ and +” and the MIC/MLC chart symbol (S. aureus 4250 (Tet K); analog .39 μg/ml) was “↓ and +”. For the same compound, the MIC/MLC chart symbol (S. aureus 4250 (Tet K); analog .78 μg/ml) was “◯ and +”, the MIC in combination (S. aureus 4250 (Tet K); with 1.55 μg/ml doxycycline (Chart 6B)) was 1.56 µg/mL and the MIC in combination (S. aureus 4250 (Tet K); with 6.23 μg/ml doxycycline (Chart 6B)) was 0.78 µg/mL. The MIC/MLC chart symbol (E. faecalis 158 (Tet L); analog 1.56 μg/ml) was “↓ and ◯”, the MIC/MLC chart symbol (E. faecalis 158 (Tet L); analog .195 μg/ml) was “◯ and +” and the MIC/MLC chart symbol (E. faecalis 158 (Tet L); analog .39 μg/ml) was “◯ and +”. The MIC/MLC chart symbol (E. faecalis 158 (Tet L); analog .78 μg/ml) was “◯ and +”, the MIC/MLC chart symbol (E. faecalis 211 (Tet M); analog 1.56 μg/ml) was “◯ and +” and the MIC/MLC chart symbol (E. faecalis 211 (Tet M); analog 3.12 μg/ml) was “+”. For the same compound, the MIC/MLC chart symbol (E. faecalis 211 (Tet M); analog 6.25 μg/ml) was “↓ and +”, the MIC/MLC chart symbol (E. faecalis 211 (Tet M); analog .195 μg/ml) was “+” and the MIC/MLC chart symbol (E. faecalis 211 (Tet M); analog .39 μg/ml) was “+”. The MIC/MLC chart symbol (E. faecalis 211 (Tet M); analog .78 μg/ml) was “+”.
